In article PMC5234776, “Study of the Antimicrobial Activity of Tilapia Piscidin 3 (TP3) and TP4 and Their Effects on Immune Functions in Hybrid Tilapia (Oreochromis spp.)” (PLoS ONE, 2017):
Peptide text beside a SMILES is read from it.

Tests used:
Format in all cases: in vivo, tilapia (Oreochromis spp.)
[1] = tested on: V. vulnificus; test: Tilapia survival, co-treatment with V. vulnificus and peptide; details: abdominal cavity, seven days
Text: (§1) We obtained tilapia (Oreochromis spp.) from a commercial aquaculture company. The fish body lengths were 4.0±0.6 cm, and body weights were 3.1±0.3 g. The tilapia were maintained in a 2000 liter indoor aquarium at the Marine Research Station, Ilan, Taiwan. To study the efficacy with which TP3 and TP4 protect tilapia against V. vulnificus, we injected the bacteria into the abdominal cavities (peritoneum) of the tilapia using a syringe (29 Gx1/2, Terumo Medical, Elkton, MD, USA); control tilapia were injected with PBS-buffered saline. For the first trial in each group, we used 15 tilapia: (a) group 1 was injected with V. vulnificus (2×10^5 CFU/fish) only; (b) group 2 was injected with PBS only; and (c) group 3 was injected with bacterial cells (2×10^5 CFU/fish) combined with a mixture containing both TP3 and TP4 peptides (at 0.1, 1, 10, or 20 μg/fish) that had been incubated for 60 minutes at 28°C. Next, at 168 hours after the first injection, the tilapia that survived the first co-treatment were again injected with V. vulnificus (2×10^5 CFU/fish). For this second challenge, we chose tilapia with similar body weights and ages that had not been previously treated with V. vulnificus, TP3 or TP4 for the V. vulnificus-only group (control group), and we recorded the survival rate over seven days. For the third trial, each group contained 15 tilapia, each of which was injected with 20, 30, or 40 μg of TP3 or TP4 followed by V. vulnificus (2×10^5 CFU/fish) after 0.5, 1, or 2 hours. The survival rate was recorded after seven days. For the fourth trial, each group contained 15 tilapia, each of which was first injected with V. vulnificus (2×10^5 CFU/fish) and then with 20, 30, or 40 μg of TP3 or TP4 after 0.5, 1, or 2 hours; the survival rate was recorded over seven days. Each experimental group consisted of 15 fish per treatment and three replicates (triplicate groups of 15 fish per treatment). We performed multiple group comparisons by analysis of variance (ANOVA) using SPSS software, and pairwise comparisons of groups were performed using a t-test. Significant differences were indicated as *P<0.05 and **P<0.01.

[2] = tested on: V. vulnificus; test: Tilapia survival, re-challenge of co-treatment survivors with V. vulnificus; details: survivors of 20 μg/fish co-treatment, followed seven days
Text: as §1
The antimicrobial activities of TP3 and TP4 peptides were analyzed in tilapia infected with lethal amounts of bacteria. Different amounts of V. vulnificus were injected into the abdominal cavities of the fish, and survival rates were recorded as cumulative percentages (S1 Fig). To determine whether TP3 and TP4 had any toxic effects on the tilapia, we injected different doses of TP3 and TP4 (0.1, 1, 10, 20, 30, 40, or 50 μg/fish) into the abdominal cavity and recorded the cumulative survival percentage of the fish (S2 Fig). We also co-treated tilapia with different doses (0.1, 1, 10, 20 μg/fish) of TP3 or TP4 combined with 2x10^4 CFU of V. vulnificus to evaluate tilapia survival following treatment. […] After 14, 21, or 28 days following the first co-treatment with TP3, the tilapia that survived in the 20 μg/fish TP3 experimental group were injected with a second dose of 2x10^4 CFU of V. vulnificus, and the survival rates were measured for another seven days. […] In the co-treatment experiments, at 14, 21, or 28 days after the first co-treatment with TP4, the surviving tilapia in the 20 μg/fish TP4 experimental group received a second injection of 2x10^4 CFU of V. vulnificus, and the survival rates were measured for another seven days.

[3] = tested on: IL-1β, IL-6, IL-8, Mcp-8, β-defensin; test: qPCR of immune-related gene expression in tilapia liver and spleen; details: in words; for expression of immune-related genes IL-1β, IL-6, IL-8 and MCP-8: co-treatment or peptide treatment alone; for expression of TP2, TP3, TP4 or β-defensin antimicrobial peptide genes in liver: peptide alone or co-treatment, 3 hours after treatment
Method: Total RNA was isolated from the tilapia by peptide treatment before, concurrent with and after infection as described above. The groups included one that was only injected with V. vulnificus (2×10^5 CFU/fish) and one that was only injected with peptides (20 μg/fish). Samples were collected at 3, 6, 12, 24, and 48 hours after treatment to extract RNA, and the levels of tilapia total RNA obtained from the liver and spleen were determined with comparative real-time qRT-PCR analysis of all experimental groups. Real-time qRT-PCR was used to detect the levels of IL-1β (GenBank accession no. DQ061114.1), IL-6 (GenBank accession no. XM_005478656), IL-8 (GenBank accession no. NM001279706), Mcp-8 (GenBank accession no. XM_005478749) and β-defensin (GenBank accession no. KF294753). mRNA was isolated and transcribed into complementary first strands (c) according to previously published methods for real-time comparative qPCR to obtain DNA and detect the relative expression levels of each gene. All samples were examined in triplicate using a sample size of five tilapia. The reactions used to analyze gene expression consisted of 0.05 μg of total RNA. Comparative qRT-PCR Mastermix for the SYBR Green kit (Applied Biosystems, Perkin-Elmer) was used for quantification. The total reaction volume was 20 μl; the reactions were run in 96-well plates; and the program consisted of 40 cycles of 3 seconds at 95°C and 20 seconds at 60°C. We added a dissociation thermal start temperature of […] to each experiment to analyze the melting peaks of the generated PCR products. The data from each experiment were expressed as a ratio of the specific target gene expression/β-actin RNA expression. We used t-tests to compare groups, and multiple group comparisons were tested by ANOVA in SPSS software. Differences were defined as significant at P<0.05 (*), <0.01 (**), and <0.001 (***).

[4] = tested on: V. vulnificus; test: Tilapia survival, peptide injected before V. vulnificus infection (pre-treatment); details: 7 days
Text: as §1

[5] = co-injection of V. vulnificus and peptide 0.1 μg/fish
[6] = co-injection of V. vulnificus and peptide 1 μg/fish
[7] = co-injection of V. vulnificus and peptide 10 μg/fish
[8] = co-injection of V. vulnificus and peptide 20 μg/fish
[9] = peptide 20 μg/fish 0.5 hours before V. vulnificus
[10] = peptide 20 μg/fish 1 hour before V. vulnificus
[11] = peptide 20 μg/fish 2 hours before V. vulnificus
[12] = peptide 30 μg/fish 0.5 hours before V. vulnificus
[13] = peptide 30 μg/fish 1 hour before V. vulnificus
[14] = peptide 30 μg/fish 2 hours before V. vulnificus
[15] = peptide 40 μg/fish 0.5 hours before V. vulnificus
[16] = peptide 40 μg/fish 1 hour before V. vulnificus
[17] = peptide 40 μg/fish 2 hours before V. vulnificus

Structure (SMILES) | survival rate [1, 5] [%] | survival rate [1, 6] [%] | survival rate [1, 7] [%] | survival rate [1, 8] [%] | survival rate after second injection of V. vulnificus ([2]; re-challenged after 14 days) [%] | survival rate after second injection of V. vulnificus ([2]; re-challenged after 21 days) [%] | survival rate after second injection of V. vulnificus ([2]; re-challenged after 28 days) [%] | expression of immune-related genes IL-1β, IL-6, IL-8 and MCP-8 [3] | expression of TP2, TP3, TP4 or β-defensin antimicrobial peptide genes in liver [3] | survival rate [4, 9] [%] | survival rate [4, 10] [%] | survival rate [4, 11] [%] | survival rate [4, 12] [%] | survival rate [4, 13] [%] | survival rate [4, 14] [%] | survival rate [4, 15] [%] | survival rate [4, 16] [%] | survival rate [4, 17] [%] | other results
CC[C@H](C)[C@H](NC(=O)[C@H](CC(C)C)NC(=O)[C@H](CO)NC(=O)[C@H](Cc1c[nH]cn1)NC(=O)[C@@H](NC(=O)[C@H](Cc1c[nH]cn1)NC(=O)[C@H](CCCCN)NC(=O)CNC(=O)[C@@H](NC(=O)[C@H](CO)NC(=O)[C@H](Cc1ccccc1)NC(=O)[C@H](CC(C)C)NC(=O)CNC(=O)CNC(=O)[C@@H](NC(=O)[C@@H](NC(=O)[C@H](Cc1c[nH]cn1)NC(=O)[C@H](Cc1c[nH]cn1)NC(=O)[C@@H](NC(=O)[C@@H](N)Cc1ccccc1)[C@@H](C)CC)[C@@H](C)CC)[C@@H](C)CC)C(C)C)[C@@H](C)CC)C(=O)N[C@@H](Cc1c[nH]cn1)C(=O)NCC(=O)N[C@@H](Cc1c[nH]cn1)C(=O)O [TP3, tilapia piscidin 3] (H-FIHHIIGGLFSVGKHIHSLIHGH-OH) | 0 | 0 | 73.3 | 95.3 | 17.8 | 26.7 | 35.6 | down-regulation | down-regulated | 13.3 | 2.2 | 2.2 | 28.9 | 11.8 | 8.9 | 26.7 | 8.9 | 4.4 | IL-1β, IL-6, IL-8, Mcp-8 and β-defensin gene expression in liver ([3]; pre-treatment and post-treatment groups, three hours after infection with V. vulnificus): significantly higher levels; IL-1β, IL-6, IL-8 and β-defensin gene expression in spleen ([3]; pre-treatment and post-treatment, three hours after infection): significant increase
CC[C@H](C)[C@H](NC(=O)[C@H](C)NC(=O)[C@H](CCCCN)NC(=O)CNC(=O)[C@H](C)NC(=O)[C@H](CO)NC(=O)[C@H](Cc1ccccc1)NC(=O)[C@H](CC(C)C)NC(=O)CNC(=O)CNC(=O)[C@@H](NC(=O)[C@@H](NC(=O)[C@H](Cc1c[nH]cn1)NC(=O)[C@H](Cc1c[nH]cn1)NC(=O)[C@@H](NC(=O)[C@@H](N)Cc1ccccc1)[C@@H](C)CC)[C@@H](C)CC)[C@@H](C)CC)C(=O)N[C@@H](Cc1c[nH]cn1)C(=O)N[C@@H](CCCNC(=N)N)C(=O)N[C@@H](CC(C)C)C(=O)N[C@H](C(=O)N[C@@H](CCCNC(=N)N)C(=O)N[C@@H](CCCNC(=N)N)C(=O)N[C@@H](CCCNC(=N)N)C(=O)N[C@@H](CCCNC(=N)N)C(=O)N[C@@H](CCCNC(=N)N)C(=O)O)[C@@H](C)CC [TP4, tilapia piscidin 4] (H-FIHHIIGGLFSAGKAIHRLIRRRRR-OH) | 73.3 | 75 | 86 | 88.9 | 17.8 | 37.8 | 42.2 | down-regulation | down-regulated | 37.8 | 4.4 | 0 | 31.1 | 20 | 2.2 | 11.1 | 4.4 | 4.4 | IL-1β, IL-6, IL-8 and Mcp-8 expression in spleen ([3]; peptide alone or co-injected with V. vulnificus, 12 hours after treatment): lower
